Data published in patent US7408063B2, “1,8-annelated quinoline derivatives substituted with carbon-linked triazoles as farnesyl transferase inhibitors” (Janssen Pharmaceutica, N.V., priority 2001, dated 2008).

Columns and labels:
[1] = target: farnesyl protein transferase (Homo sapiens, UniProt P49354+P49356); assay: In vitro assay for inhibition of farnesyl protein transferase; type: biochemical; conditions: negative log value of the IC50-value; IC50 = concentration needed to reduce the product of the enzymatic reaction to 50% of the control; read-out: Enzyme activity pIC50 (converted)
Description: An in vitro assay for inhibition of farnesyl transferase was performed essentially as described in WO 98/40383, pages 33-34. When appropriate, IC50-values (concentration of the drug, needed to reduce the product of the enzymatic reaction, to 50% of the conrol) were computed using probit analysis for graded data (Finney, D. J., Probit Analuses, 2nd Ed. Chapter 10, Graded Responses, Cambridge Univerity Press, Cambridge 1962). Herein (see table F-3) the effects of test compounds are expressed as pIC50 (the negative log value of the IC50-value). Also the intermediate compounds described in the table F-1 show activity in the in vitro assay for inhibition of farnesyl protein transferase.

SMILES	melting point [°C]	IC50 [1] [nM]
Cn1cnnc1C(c1ccc(C#N)cc1)c1cc2c3c(c1)c(-c1cccc(Cl)c1)cc(=O)n3CC2 (stereo not shown) [Compound 2, 4-[[6-(3-chlorophenyl)-1,2-dihydro-4-oxo-4H-pyrrolo[3,2,1-ij]quinolin-8-yl](4-methyl-4H-1,2,4-triazol-3-yl)methyl]-benzonitrile]	174	2.02
Cn1cnnc1C(O)(c1ccc(Br)cc1)c1cc2c3c(c1)c(-c1cccc(Br)c1)cc(=O)n3CC2 (stereo not shown) [Compound 13]	–	5.86
Cn1cnnc1C(c1ccc(I)cc1)c1cc2c3c(c1)c(-c1cccc(Cl)c1)cc(=O)n3CC2 (stereo not shown) [Compound 1, 6-(3-chlorophenyl)-1,2-dihydro-8-[(4-iodophenyl)(4-methyl-4H-1,2,4-triazol-3-yl)methyl]-4H-pyrrolo[3,2,1-ij]quinolin-4-one]	–	21.4
Cn1cnnc1C(O)(c1ccc(Cl)cc1)c1cc2c3c(c1)c(-c1cccc(Cl)c1)cc(=O)n3CCC2 (stereo not shown) [Compound 3, 7-(3-chlorophenyl)-9-[(4-chlorophenyl)hydroxy(4-methyl-4H-1,2,4-triazol-3-yl)methyl]-2,3-dihydro-1H,5H-benzo[ij]quinolizin-5-one]	183	8.18
COC(c1ccc(Cl)cc1)(c1cc2c3c(c1)c(-c1cccc(Cl)c1)cc(=O)n3CCC2)c1nncn1C (stereo not shown) [Compound 6, 7-(3-chlorophenyl)-9-[(4-chlorophenyl)methoxy(4-methyl-4H-1,2,4-triazol-3-yl)methyl]-2,3-dihydro-1H,5H-benzo[ij]quinolizin-5-one]	132	< 100
Cn1cnnc1C(c1ccc(I)cc1)c1cc2c3c(c1)c(-c1cccc(Cl)c1)cc(=O)n3CC2 (stereo not shown) (hydrate or solvate) [Compound 1, 6-(3-chlorophenyl)-1,2-dihydro-8-[(4-iodophenyl)(4-methyl-4H-1,2,4-triazol-3-yl)methyl]-4H-pyrrolo[3,2,1-ij]quinolin-4-one]	194	–
Cn1cnnc1C(O)(c1ccc(Cl)cc1)c1cc2c3c(c1)c(-c1ccc(Cl)cc1)cc(=O)n3CC2 (stereo not shown) [Compound 11]	–	< 100
Cn1cnnc1C(O)(c1ccc(Cl)cc1)c1cc2c3c(c1)c(-c1cccc(Cl)c1)c(Br)c(=O)n3CC2 (stereo not shown) [Compound 12]	–	> 100

Second part, the compound after the results:

melting point [°C]	IC50 [1] [nM]	SMILES
–	5.77	Cn1cnnc1C(O)(c1ccc(F)cc1)c1cc2c3c(c1)c(-c1cccc(Cl)c1)cc(=O)n3CC2 (stereo not shown) [Compound 4, 6-(3-chlorophenyl)-8-[(4-fluorophenyl)hydroxy(4-methyl-4H-1,2,4-triazol-3-yl)methyl]-1,2-dihydro-4H-pyrrolo[3,2,1-ij]quinolin-4-one]
–	3.84	Cn1cnnc1C(c1ccc(F)cc1)(c1cc2c3c(c1)c(-c1cccc(Cl)c1)cc(=O)n3CC2)n1ccnc1 (stereo not shown) [Compound 8, 6-(3-chlorophenyl)-8-[(4-fluorophenyl)-1H-imidazol-1-yl(4-methyl-4H-1,2,4-triazol-3-yl)methyl]-1,2-dibydro-4H-pyrrolo[3,2,1-ij]quinolin-4-one]
138	3.95	Cn1cnnc1C(OCCO)(c1ccc(F)cc1)c1cc2c3c(c1)c(-c1cccc(Cl)c1)cc(=O)n3CC2 (stereo not shown) [Compound 7, 6-(3-chlorophenyl)-8-[(4-fluorophenyl)(2-hydroxyethoxy)(4-methyl-4H-1,2,4-triazol-3-yl)methyl]-1,2-dihydro-4H-pyrrolo[3,2,1-ij]quinolin-4-one]
–	29.3	COC(c1ccc(F)cc1)(c1cc2c3c(c1)c(-c1cccc(Cl)c1)cc(=O)n3CC2)c1nncn1C (stereo not shown) [Compound 10, 6-(3-chlorophenyl)-8-[(4-fluorophenyl)methoxy(4-methyl-4H-1,2,4-triazol-3-yl)methyl]-1,2-dihydro-4H-pyrrolo[3,2,1-ij]quinolin-4-one]
–	2.98	Cn1cnnc1C(N)(c1ccc(F)cc1)c1cc2c3c(c1)c(-c1cccc(Cl)c1)cc(=O)n3CC2 (stereo not shown) [Compound 9, 8-[amino(4-fluorophenyl)(4-methyl-4H-1,2,4-triazol-3-yl)methyl]-6-(3-chlorophenyl)-1,2-dihydro-4H-pyrrolo[3,2,1-ij]quinolin-4-one]
196	3.4	CC(=O)NC(c1ccc(F)cc1)(c1cc2c3c(c1)c(-c1cccc(Cl)c1)cc(=O)n3CC2)c1nncn1C (stereo not shown) [Compound 5, N-[[6-(3-chlorophenyl)-1,2-dihydro-4-oxo-4H-pyrrolo[3,2,1-ij]quinolin-8-yl](4-fluorophenyl)(4-methyl-4H-1,2,4-triazol-3-yl)methyl]-acetamide]
